Laboratory results published in patent US5510346A, “4-heteroaryl-1,3-benzodiazepines and 2-substituted-gamma-(heteroaryl)benzeneethanamines” (Hoechst Marion Roussel, Inc., priority 1991, dated 1996).

Columns and labels:
[1] = system: N-methyl-D-aspartic acid (NMDA)-induced seizures; assay: N-Methyl-D,L-Aspartic Acid Induced Seizure Assay (NMDA protection); assay type: in vivo; settings: male Swiss Webster mice, ip; N-methyl-D,L-aspartic acid 350 mg/kg challenge; absence of clonic seizures during 30 minute observation
Method: In this assay, male Swiss Webster mice (Charles River), 18-25 grams are used. Animals are ordered at 33 to 36 days of age and can be used for 8 days after arrival. They are housed for at least 24 hours in a climate controlled animal colony with food and water available ad libimm. On the day of testing, animals are brought to the laboratory and randomly assigned to groups. N-Methyl-D,L-aspartic acid (350 mg) is dissolved in 10 ml of saline and mixed thoroughly with a homogenizer for 1-2 minutes. Test compounds are prepared in distilled water and, if insoluable, a suitable surfactant is added. For a primary screen the test compound is administered at 60 mg/kg, ip (10 ml/kg), to groups of ten mice, 30 minutes prior to challenge with N-methyl-D,L-aspartic acid (350 mg/kg, […]). After N-Methyl-D,L-aspartic acid administration animals are placed individually in clear plastic cyclinders (12"×5.5"×1/4") and then observed for clonic seizures. N-methyl-D,L-aspartic acid will produce clonic seizures, and sometimes tonic seizures and death, in vehicle control animals.
A clonic convulsion is defined as a single episode of clonic spasms of a least a 3 second duration. […]
Data is calculated by the method of J. T. Litchfield, Jr. and F. Wileoxon. […]
The normalized percent protection is calculated using the following formula: [formula]

[2] = system: Geller Conflict Paradigm in Rats; assay: Geller Conflict Paradigm in Rats (anxiolytic activity); assay type: in vivo; settings: i.p.
Source text: The intraperitoneal (i.p.) dosages at which the following compounds show anxiolytic activity are: […]

2-Amino-α-(3-methyl-3-thienyl)benzeneethanamine
NMDA Protection ED50 [1]: 19.0 mg/kg

CN1C(=O)CN=C(c2ccccc2)c2cc(Cl)ccc21 [Diazepam, reference compound]
Anti-Conflict Response % Change Compared to Control ([2]; 10 mg/kg): +180%
Anti-Conflict Response % Change Compared to Control ([2]; 20 mg/kg): +630%

CCNC(Cc1ccccc1N)c1sccc1C.Cl.Cl (stereo not drawn) [2-Amino-N-ethyl-α-(3-methyl-2-thienyl)benzeneethanamine dihydrochloride]
Anti-Conflict Response % Change Compared to Control ([2]; 1 mg/kg): +100%
Anti-Conflict Response % Change Compared to Control ([2]; 5 mg/kg): +70%
